According to a melting point compilation (Tetko et al.; mined from patent text by program, amines drawn as free bases though some values may be those of a salt):

`CC(=O)OCC(=O)C1(O)C(C)CC2C3CCC4=CC(=O)C=CC4(C)C3=CCC21C` (stereo not drawn) gave a melting point of 202 to 205 °C. Compound `CCOC(=O)CC(c1ccccc1)c1ccc(NC(=O)NCCCl)cc1` (stereo not drawn) has a melting point of 109 to 111 °C. Work on `O=P(O)(O)CCCCCCCCC(F)(F)C(F)(F)C(F)(F)C(F)(F)F` yielded a melting point of 87 to 89 °C. Work on `C[C@H](C#Cc1ccc(Cc2ccccc2)s1)N(O)C(N)=O` yielded a melting point of 140 to 142 °C. In the case of `O[C@@H]1[C@H](O)[C@H](O)CO[C@H]1n1c(Br)nc2c(F)c(Cl)c(Cl)cc21`, the melting point is reported as 165 °C. `CCOC(=O)CNc1ncccc1NC(=O)c1ccc(Cl)cc1` gave a melting point of 133 to 134 °C. In the case of `CC(C)(C)OC(=O)c1ccc(N(Cc2ccc(C(=O)O)cc2)Cc2cc(Br)ccc2OCc2ccccc2)cc1`, the melting point is reported as 110 °C. `CC(=O)n1cc(C2=CCN(C)CC2)c2cc(F)ccc21` showed a melting point of 126 to 128 °C. Work on `CCCCc1cnc(SC)[nH]c1=O` yielded a melting point of 138 to 140 °C. Work on `N[C@@H](Cc1cc(F)cc(F)c1)[C@H](O)CO` yielded a melting point of 93 °C. For `CC(C)NC(=O)c1n[nH]cc1NC(=O)c1ccccn1`, the melting point was 254 to 255 °C. `COC(=O)c1c(SC(C)C)c2cc(OC)ccc2n1C` gave a melting point of 93 to 95 °C. With `O=C(O)c1ncn2c1CSC2` the melting point was 184 to 185 °C. For `Oc1cc(-c2ccccc2)on1`, the melting point was 150 to 151 °C. `O=C(Cc1ccncn1)c1ccc(Cl)cc1` showed a melting point of 110 °C. In the case of `OC(CSC(=S)Nc1ccc(Cl)cn1)c1ccccc1` (stereo not drawn), the melting point is reported as 116 °C. With `Cc1c(Br)c(C(F)(F)F)nn1C(C)C(=O)N(C)C` (stereo not drawn) the melting point was 86 to 88 °C. Compound `NCCc1c2n(c3ccccc13)C(=O)CCC2` has a melting point of 110 to 111 °C. With `Cc1sc(-c2nccs2)c2c1C(=O)CC(C)(C)C2` the melting point was 98 to 100 °C. For `O=C1N(C(c2ccccc2)c2ccccc2)c2ccccc2C12COc1cc3c(cc12)CCCO3` (stereo not drawn), the melting point was 208 to 211 °C. In the case of `Cc1cc(C(F)(F)F)ccc1NC(=O)c1c(C)cccc1NC(=O)C(C)C`, the melting point is reported as > 230 °C. With `CCOC(=O)C(=CC=C(C#N)c1ccccc1)N(C)C` the melting point was 67 °C. Compound `CCCOc1ccc(Br)cc1-c1nc2cc3nc[nH]c3cc2c(=O)[nH]1` has a melting point of 154 to 155 °C. `CCC(C)CC(=O)OC1COC(OC(=O)CC(C)CC)CO1` (stereo not drawn) showed a melting point of 71 to 72 °C. Work on `Clc1ccc2c(NCc3ccccc3)nc(-n3ccnc3)nc2c1` yielded a melting point of 265 to 268 °C. `COC(=O)c1cccc(OCc2c(Cl)cccc2Cl)c1` showed a melting point of 96 to 98 °C. In the case of `COC(=O)C=Cc1cncn1Cc1ccccc1`, the melting point is reported as 137 to 139 °C. `CN1CCN(c2ccc(-n3c(-c4cc(-c5cnc6[nH]ccc6c5)ccn4)cn(C)c3=O)cc2C(F)(F)F)CC1` showed a melting point of 241 °C. With `CCOC(=O)C1=C(COCc2cccnc2)NC(COCc2cccnc2)=C(C(=O)OCC)C1c1cccc([N+](=O)[O-])c1` the melting point was 169 to 171 °C. Work on `C[C@H]1[C@@H]2C(=O)N(Cc3ccccc3)C(=O)[C@@H]2[C@H](c2ccc(C#N)cc2)N1C` (racemic) yielded a melting point of 188 to 190 °C. With `O=C(O)c1ccc(-c2ccc(F)cc2)cc1` the melting point was 138 to 141 °C. Compound `O=C1NC(OC(=O)c2ccccc2)C2=C1c1ccc(Cl)cc1C(c1ccccc1Cl)=NC2` (stereo not drawn) has a melting point of 140 to 142 °C. In the case of `C[C@H]([C@](O)(Cn1cncn1)c1ccc(F)cc1F)S(=O)(=O)N1CCN(c2ccc(F)cc2)CC1`, the melting point is reported as 128 to 130 °C. For `Cn1cc2c3c(ccc2n1)CCC3=CC#N`, the melting point was 189 to 192 °C. `O=C1CCC(c2ccc3[nH]c(-c4ccccc4Cl)cc3c2)=NN1` gave a melting point of 236 to 239 °C. `NC(=O)c1cnn(-c2ccc(Cl)nn2)c1N` showed a melting point of 314 to 317 °C. For `O=C1CC(c2ccc(Cl)cc2Cl)Oc2ccccc21` (stereo not drawn), the melting point was 91 to 92 °C. In the case of `O=C(Nc1ccc(OC(F)F)cc1)N1N=C(c2ccc(Cl)cc2)CC1c1ccc(Cl)cc1` (stereo not drawn), the melting point is reported as 174 °C. For `CN(C)C=CC(=O)c1ccc(Cl)c(S(=O)(=O)N=CN(C)C)c1`, the melting point was 204 to 206 °C. Compound `CC(Cc1c[nH]c2ccccc12)(NC(=O)OC1C2CC3CC(C2)CC1C3)C(=O)NCCc1nc[nH]n1` (stereo not drawn) has a melting point of 124 to 128 °C. In the case of `CC1OC(Cn2cncn2)(c2ccc(F)cc2F)C1(C)C` (stereo not drawn), the melting point is reported as 112 to 113 °C. In the case of `NS(=O)(=O)c1ccccc1C=CC(F)(F)F`, the melting point is reported as 153 to 154 °C. `COC(=O)C(C)(N)Cc1c[nH]c2ccc(OCC3CC3)cc12` (racemic) gave a melting point of 172 °C. Work on `COC(=O)CCCCC(=O)c1ccc(F)cc1` yielded a melting point of 41 to 43 °C. With `CCOC(=O)c1c(N(CC)CC)c2ccc(C)nc2n(CC)c1=O` the melting point was 79 to 82 °C. `Cn1c(COc2ccc(CC3SC(=O)NC3=O)cc2)nc2ccc(Oc3cccc(NC(=O)Nc4cccc(C(F)(F)F)c4)c3)cc21` (stereo not drawn) showed a melting point of 162 to 163 °C. For `CN(C)C=Nc1cnc(-c2cccc(CO)c2)nc1`, the melting point was 105 to 106 °C. Compound `CC1CC(=O)NN=C1c1cccc(C(F)(F)F)c1` (stereo not drawn) has a melting point of 132 to 134 °C. Compound `CNc1nc(C(N)=O)c(-c2ccncc2)s1` has a melting point of 212 to 213 °C. `N#Cc1n[nH]c2nc(N3CCN(CCO)CC3)ccc12` gave a melting point of 232 to 233 °C. In the case of `COc1ccccc1CN[C@H]1CCCN(C)[C@H]1c1ccccc1` (relative stereo), the melting point is reported as 58 °C. Compound `NCCOc1ccc(CC2SC(=O)NC2=O)cc1` (stereo not drawn) has a melting point of 175 to 176 °C. With `CC(C)(C)OC(=O)N(CC(=O)O)CC(=O)O` the melting point was 135 to 137 °C. In the case of `COc1cc2c(cc1OC)SCCC(C(=O)N1CCN(C(=O)c3cc(OC)c(OC)c(OC)c3)CC1)=C2`, the melting point is reported as 113 °C. In the case of `COC(=O)c1cc2nc(C)n(C)c2cc1C(=O)OC`, the melting point is reported as 147 to 148 °C. For `CCOC(=O)[C@@H]([C@H](N)C(=O)O)[C@@H](C)O`, the melting point was 150 to 151 °C. In the case of `CCc1ccc(C(C)=O)c(NC(C#N)c2c(Cl)cccc2Cl)c1` (stereo not drawn), the melting point is reported as 111 °C. For `CC1CCC(N2c3ccccc3Oc3c(Cl)cccc32)=N1` (stereo not drawn), the melting point was 120 to 122 °C. Work on `Cc1sc(N2CCN(C(=O)OC(C)(C)C)CC2)nc1/C=C/c1cn(-c2ccccc2)nc1O` yielded a melting point of 221 to 223 °C. Work on `Nc1ncccc1-c1nc2cc(Br)cnc2n1-c1ccc(NC(=O)c2ccccc2)cc1` yielded a melting point of 242 to 244 °C. In the case of `O=C(CC(=O)C(F)F)c1ccc(Br)s1`, the melting point is reported as 83.5 to 85 °C. `Cc1nccc(N2CCN(C(=O)C3CCN(S(=O)(=O)c4ccc(Br)cc4)CC3)CC2)n1` gave a melting point of 239 to 240 °C. For `CCCCCCC1=CC(O)(C(Br)Br)N(Cc2ccccc2)C1=O` (stereo not drawn), the melting point was 105 to 108 °C. `Fc1ccc(-c2cc(N3CCN(c4ccc(F)cc4)CC3)nc3c2CCCCCC3)cc1` showed a melting point of 130 to 131 °C. For `CC1(CCC(=O)O)CC(=O)c2ccc(OCc3cccc(OCc4ccc5ccccc5n4)c3)cc2O1` (stereo not drawn), the melting point was 152 to 154 °C. With `CCc1onc(-c2ccccc2)c1C(=O)NCCCN1CCN(c2ccccc2OCC(F)(F)F)CC1` the melting point was 102 to 104 °C. Work on `Cc1nc2c3c(c(C(=O)N4CCC(O)C4)cc2n1C)CCC(c1ccccc1)O3` (stereo not drawn) yielded a melting point of 322 to 324 °C. With `O=C1c2c(OCc3ccccc3)cccc2-c2nn(CCN(CCO)Cc3ccccc3)c3ccc(NCCNCCO)c1c23` the melting point was 134 to 137 °C. Compound `CSc1ncc2ccc(=O)[nH]c2n1` has a melting point of 270 to 271 °C. Compound `CN1CCCC(Nc2ccnc3cc(Cl)ccc23)C1` (racemic) has a melting point of 149 to 150 °C. For `CC#COc1ccc2c(=O)cc(-c3ccccc3)oc2c1`, the melting point was 199 to 200 °C. For `COc1ccccc1NC1CN([C@H]2CC[C@@H](c3c[nH]c4ccccc43)CC2)C1`, the melting point was 67 to 70 °C. `Cc1cc(C)c2cccc(OCc3c(Cl)ccc(S(=O)(=O)N4CCC[C@H]4C(=O)N4CCCNCC4)c3Cl)c2n1` gave a melting point of 65 °C.
